Columns and labels:
[1] = target: T1, γ-glutamyl kinase Pro1 (GK) (Saccharomyces cerevisiae, UniProt P32264); test: PK/LDH-coupled ADP assay, NADH at […] nm; type: biochemical; design: full-length ORF in pET15b (NdeI/XhoI), His-tag, E. coli BL21(DE3), Ni Sepharose; tag removal not mentioned; conditions: 400 mM sodium glutamate, 5 mM ATP, 10 mM MgCl2, 100 mM HEPES-NaOH pH 7.4, 30 °C; no proline
T1 sequence (P32264 1-428): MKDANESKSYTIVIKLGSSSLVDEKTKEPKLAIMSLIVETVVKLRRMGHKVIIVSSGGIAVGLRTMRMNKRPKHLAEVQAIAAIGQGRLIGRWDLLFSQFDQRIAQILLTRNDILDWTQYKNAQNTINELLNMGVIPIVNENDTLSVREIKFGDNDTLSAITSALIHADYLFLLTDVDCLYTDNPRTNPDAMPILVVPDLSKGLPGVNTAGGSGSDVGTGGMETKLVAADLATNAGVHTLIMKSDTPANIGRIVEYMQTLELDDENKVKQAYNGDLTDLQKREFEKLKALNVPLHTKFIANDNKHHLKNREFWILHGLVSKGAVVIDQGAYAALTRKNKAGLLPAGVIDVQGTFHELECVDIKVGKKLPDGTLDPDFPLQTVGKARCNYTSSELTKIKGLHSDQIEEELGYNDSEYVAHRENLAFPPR

[2] = target: γ-glutamyl kinase Pro1 (GK) (Saccharomyces cerevisiae, UniProt P32264, I150T); test: biochemical; conditions: read-out: relative activity at 100 mM proline
[3] = target: T1, γ-glutamyl kinase Pro1 (GK); conditions: 400 mM sodium glutamate, 5 mM ATP, 10 mM MgCl2, 100 mM HEPES-NaOH pH 7.4, 30 °C; allosteric feedback inhibition
[4] = target: γ-glutamyl kinase Pro1 (GK) (Saccharomyces cerevisiae, UniProt P32264, Q79H); test: biochemical; conditions: read-out: relative activity at 100 mM proline
Sequence of γ-glutamyl kinase Pro1 (GK) (Saccharomyces cerevisiae, UniProt P32264, Q79H) (P32264 whole entry Q79H): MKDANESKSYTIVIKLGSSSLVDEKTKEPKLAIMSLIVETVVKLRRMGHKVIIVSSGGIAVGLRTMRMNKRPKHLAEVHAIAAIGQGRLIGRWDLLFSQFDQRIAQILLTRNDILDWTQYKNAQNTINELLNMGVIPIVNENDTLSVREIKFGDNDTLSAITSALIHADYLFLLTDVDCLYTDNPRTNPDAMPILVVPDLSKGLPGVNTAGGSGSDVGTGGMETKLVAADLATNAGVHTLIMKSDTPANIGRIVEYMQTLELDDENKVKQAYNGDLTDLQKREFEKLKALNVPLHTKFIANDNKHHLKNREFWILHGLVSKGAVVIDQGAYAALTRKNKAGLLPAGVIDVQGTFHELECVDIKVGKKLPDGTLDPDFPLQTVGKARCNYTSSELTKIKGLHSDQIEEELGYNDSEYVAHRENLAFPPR

Sequence of γ-glutamyl kinase Pro1 (GK) (Saccharomyces cerevisiae, UniProt P32264, I150T) (P32264 whole entry I150T): as the sequence (P32264 whole entry Q79H) above, with H79Q, I150T counted along it

`Nc1ncnc2c1ncn2[C@@H]1O[C@H](COP(=O)(O)OP(=O)(O)OP(=O)(O)O)[C@@H](O)[C@H]1O` [ATP] was tested, and the “PK/LDH-coupled ADP assay, NADH at 340 nm” value [1] was “GK activity was measured by the production of ADP in an enzyme-coupled system”.
With `N[C@@H](CCC(=O)O)C(=O)O` [glutamate] the “PK/LDH-coupled ADP assay, NADH at 340 nm” value [1] was “the reaction was initiated by the addition of sodium glutamate”.
For `O=C(O)[C@@H]1CCCN1` [proline], the activity at 100000 µM [2] was 59%, the “relative activity with 0-5 mM proline” value [3] was “in the presence of proline, the GK activity of WT was markedly inhibited” and the activity at 100000 µM [4] was 96%.

— article PMC7658068, “Effects of a novel variant of the yeast γ-glutamyl kinase Pro1 on its enzymatic activity and sake brewing” (Journal of Industrial Microbiology & Biotechnology, 2020)
